Experimental data published in DBAASP.
≈ marks a conversion by molar mass, not a printed value.

Key:
Assay in all cases: ≥ marks a high value that may be exact or a test limit, other limits are often not marked, values filed in µg/mL are converted to µM
[1] = system: Enterococcus faecalis ATCC 29212
[2] = system: Acinetobacter baumannii ATCC 19606
Bacillus subtilis 168 = system: Bacillus subtilis 168
[3] = system: Staphylococcus aureus RN4220
[4] = system: Staphylococcus aureus 725
[5] = system: Saccharomyces cerevisiae BY4741
Escherichia coli K-12 = system: Escherichia coli K-12
Escherichia coli 780 = system: Escherichia coli 780
[6] = system: Pseudomonas aeruginosa 2760
[7] = system: Staphylococcus aureus 936
[8] = system: Pseudomonas aeruginosa ATCC 27853
Escherichia coli 850 = system: Escherichia coli 850
[9] = system: Bacillus subtilis ATCC 23857
[10] = system: Klebsiella pneumoniae ATCC 700603
Candida albicans CA14 = system: Candida albicans CA14
[11] = system: Escherichia coli ATCC 25922
Acinetobacter baumannii = system: Acinetobacter baumannii
[12] = system: Staphylococcus aureus ATCC 25923
[13] = system: Aspergillus niger IP218-53
[14] = system: Aeromonas caviae IP67-16T
[15] = system: Enterococcus faecalis IP103214
Escherichia coli IP76-24 = system: Escherichia coli IP76-24
[16] = system: Trichophyton simii IP1063-74
[17] = system: Candida albicans IP884-65
[18] = system: Cryptococcus neoformans IP960-67
[19] = system: Aspergillus fumigatus IP1025-70
[20] = system: Staphylococcus aureus IP76-25
[21] = system: Nocardia brasiliensis IP16-80
[22] = system: Saccharomyces cerevisiae IP118079
[23] = system: Streptococcus pneumoniae ATCC 49619
[24] = system: Pseudomonas aeruginosa 3599
[25] = system: Klebsiella pneumoniae 1625
Escherichia coli 170 = system: Escherichia coli 170
[26] = system: Pseudomonas aeruginosa 5106
Escherichia coli 5580 = system: Escherichia coli 5580
[27] = system: Pseudomonas aeruginosa 4677
[28] = system: Enterobacter cloacae 2524
Salmonella typhimurium = system: Salmonella typhimurium
[29] = system: Enterobacter cloacae 6266
[30] = system: Klebsiella pneumoniae 68228
[31] = system: Klebsiella pneumoniae 913
[32] = system: Bacillus subtilis PCI 219
[33] = system: Escherichia coli NIHJ JC-2
[34] = system: Staphylococcus aureus FDA 209P
[35] = system: Pseudomonas aeruginosa U-31
[36] = system: Enterobacter cloacae 6780

CC[C@H](C)[C@H](NC(=O)[C@H](CCCCN)NC(=O)[C@H](CCCCN)NC(=O)[C@H](C)NC(=O)[C@H](CC(C)C)NC(=O)[C@H](C)NC(=O)[C@H](C)NC(=O)[C@H](CC(C)C)NC(=O)[C@H](C)NC(=O)[C@H](CCCCN)NC(=O)[C@H](CC(C)C)NC(=O)[C@H](CC(N)=O)NC(=O)[C@@H](NC(=O)[C@H](CCCCN)NC(=O)CNC(=O)[C@H](CC(C)C)NC(=O)[C@H](CC(C)C)NC(=O)[C@H](Cc1ccc(O)cc1)NC(=O)CNC(=O)[C@H](C)N)[C@@H](C)CC)C(=O)N[C@@H](CC(C)C)C(=O)O [AGYLLGKINLKALAALAKKIL]
MIC [1]: 14.7 µM (≈ 32 µg/mL)
MIC [2]: 3.67 µM (≈ 8 µg/mL)
MIC (Bacillus subtilis 168): 10 µM (≈ 21.8 µg/mL)
MIC [3]: 4 µM (≈ 8.73 µg/mL)
MIC [4]: 7.33 µM (≈ 16 µg/mL)
MIC [5]: 8 µM (≈ 17.5 µg/mL)
MIC (Escherichia coli K-12): 10 µM (≈ 21.8 µg/mL)
MIC (Escherichia coli 780): 7.33 µM (≈ 16 µg/mL)
MIC [6]: 7.33 µM (≈ 16 µg/mL)
MIC [7]: 7.33 µM (≈ 16 µg/mL)
MIC [8]: 14.7 µM (≈ 32 µg/mL)
MIC (Escherichia coli 850): 7.33 µM (≈ 16 µg/mL)
MIC [9]: 3.67 µM (≈ 8 µg/mL)
MIC [10]: 14.7 µM (≈ 32 µg/mL)
MIC (Candida albicans CA14): 4 µM (≈ 8.73 µg/mL)
MIC [11]: 7.33 µM (≈ 16 µg/mL)
MIC (Acinetobacter baumannii): 3.67 µM (≈ 8 µg/mL)
MIC [12]: 7.33 µM (≈ 16 µg/mL)

CC[C@H](C)[C@H](NC(=O)CNC(=O)[C@H](CCCCN)NC(=O)[C@H](CC(C)C)NC(=O)[C@H](CCSC)NC(=O)[C@H](CC(N)=O)NC(=O)[C@H](CCCCN)NC(=O)[C@H](Cc1c[nH]c2ccccc12)NC(=O)[C@H](CC(C)C)NC(=O)[C@H](C)N)C(N)=O [ALWKNMLKGI]
MIC [13]: ≥ 150 µM
MIC [14]: 7 µM (≈ 8.21 µg/mL)
MIC [15]: 7 µM (≈ 8.21 µg/mL)
MIC (Escherichia coli IP76-24): 14 µM (≈ 16.4 µg/mL)
MIC [16]: ≥ 150 µM
MIC [17]: ≥ 150 µM
MIC [18]: 25 µM (≈ 29.3 µg/mL)
MIC [19]: ≥ 150 µM
MIC [20]: ≥ 150 µM
MIC [21]: ≥ 150 µM
MIC [22]: ≥ 50 µM

CC[C@H](C)[C@H](NC(=O)CN)C(=O)N[C@@H](CC(C)C)C(=O)N[C@@H](CCCCN)C(=O)N[C@H](C(=O)N[C@H](C(=O)N[C@@H](CCCCN)C(=O)N[C@@H](CO)C(=O)N[C@H](C(=O)N[C@@H](C)C(=O)N[C@@H](CO)C(=O)N[C@@H](CCCCN)C(=O)N[C@H](C(=O)N[C@@H](C)C(=O)N[C@@H](CC(N)=O)C(=O)N[C@H](C(=O)N[C@H](C(=O)N[C@@H](CCC(N)=O)C(=O)N[C@@H](CCCCN)C(=O)N[C@@H](CC(C)C)C(=O)N[C@@H](CCCCN)C(=O)N[C@@H](CCCN=C(N)N)C(=O)N[C@@H](CCCCN)C(=O)N[C@@H](C)C(=O)N[C@@H](CCCCN)C(=O)N[C@@H](CC(N)=O)C(=O)N[C@@H](C)C(=O)N[C@H](C(=O)N[C@@H](C)C(=O)O)C(C)C)C(C)C)[C@@H](C)O)C(C)C)[C@@H](C)CC)[C@@H](C)CC)[C@@H](C)O [GILKTIKSIASKVANTVQKLKRKAKNAVA]
MIC [23]: 25 µM (≈ 77 µg/mL)
MIC [24]: ≥ 50 µM
MIC [25]: 1.6 µM (≈ 4.93 µg/mL)
MIC (Escherichia coli 170): 3.1 µM (≈ 9.55 µg/mL)
MIC [26]: 12 µM (≈ 37 µg/mL)
MIC (Escherichia coli 5580): 1.6 µM (≈ 4.93 µg/mL)
MIC [27]: 25 µM (≈ 77 µg/mL)
MIC [28]: 6.2 µM (≈ 19.1 µg/mL)
MIC (Salmonella typhimurium): 3.15 µM (≈ 9.7 µg/mL)
MIC [29]: 3.1 µM (≈ 9.55 µg/mL)
MIC [30]: 6.2 µM (≈ 19.1 µg/mL)
MIC [11]: 1.6 µM (≈ 4.93 µg/mL)
MIC (Acinetobacter baumannii): 3.1 µM (≈ 9.55 µg/mL)
MIC [31]: 3.1 µM (≈ 9.55 µg/mL)

CC(C)C[C@H](NC(=O)[C@H](CCCCN)NC(=O)[C@H](CCCCN)NC(=O)[C@H](CC(C)C)NC(=O)[C@H](CC(C)C)NC(=O)[C@H](CCCCN)NC(=O)[C@H](CCCCN)NC(=O)[C@H](Cc1c[nH]c2ccccc12)NC(=O)[C@H](CCCCN)NC(=O)[C@H](CCCCN)NC(=O)[C@H](CC(C)C)NC(=O)[C@H](CC(C)C)NC(=O)[C@H](CCCCN)NC(=O)[C@H](CCCCN)NC(=O)[C@H](CC(C)C)NC(=O)[C@H](CCCCN)NC(=O)[C@@H](N)CCCCN)C(=O)N[C@@H](CCCCN)C(=O)O [KKLKKLLKKWKKLLKKLK]
MIC [32]: ≥ 43.6 µM
MIC [33]: ≥ 43.6 µM
MIC [34]: ≥ 43.6 µM
MIC [35]: ≥ 43.6 µM

CC(C)C[C@H](NC(=O)[C@H](CCCCN)NC(=O)[C@H](CCC(N)=O)NC(=O)[C@@H](NC(=O)[C@@H](NC(=O)[C@H](CC(N)=O)NC(=O)[C@H](C)NC(=O)[C@@H](NC(=O)[C@@H](N)CCCCN)C(C)C)[C@@H](C)O)C(C)C)C(=O)N[C@@H](CCCCN)C(=O)N[C@@H](CCCN=C(N)N)C(=O)N[C@@H](CCCCN)C(=O)N[C@@H](C)C(=O)N[C@@H](CCCCN)C(=O)N[C@@H](CC(N)=O)C(=O)N[C@@H](C)C(=O)N[C@H](C(=O)O)C(C)C [KVANTVQKLKRKAKNAV]
MIC (Escherichia coli 170): ≥ 50 µM
MIC [27]: ≥ 50 µM
MIC [28]: 25 µM (≈ 47.4 µg/mL)
MIC [36]: ≥ 50 µM
MIC [11]: > 50 µM
MIC (Acinetobacter baumannii): ≥ 50 µM
MIC [31]: ≥ 50 µM
